Usually IC50 stands for the point on the concentration scale where inhibition reaches its midpoint.

The values below come from article PMC9506420, “Biological Evaluation of 3-Azaspiro[Bicyclo[3.1.0]Hexane-2,5′-Pyrimidines] as Potential Antitumor Agents” (International Journal of Molecular Sciences, 2022).

Assay type in all cases: cell-based
For assay [1], the system named is human erythroleukemia (K562) cell line. Kind of assay: MTS antiproliferative (cytotoxicity) assay, K562. Particulars: for SI (selectivity index), K562: Vero as reference cell line. Here is the method: (§1) The cytotoxicity of synthesized 3-azaspiro[bicyclo[3.1.0]hexane-2,5′-pyrimidines] 4 against human erythroleukemia (K562), cervical carcinoma (HeLa), and T lymphocyte (Jurkat), as well as mouse colon carcinoma (CT26) and African green monkey kidney epithelial (Vero) cell lines as reference, was evaluated in vitro by the standard MTS assay for 24 and 72 h.
(§2) All the cell lines (human cervical carcinoma (HeLa), erythroleukemia (K-562), and T lymphocyte (Jurkat) as well as mouse colon carcinoma (CT26) and African green monkey kidney epithelial (Vero)) were obtained from the cell repository “Vertebrate cell culture collection” (supported by the Ministry of Science and Higher Education of the Russian Federation, agreement №075-15-2021-683, Institute of Cytology, Russian Academy of Sciences, Saint Petersburg, Russia). HeLa, Jurkat, and Vero cells were cultured in DMEM (HyClone, South Logan, UT, USA) supplemented with 10% (v/v) fetal bovine serum (Hyclone, GE Healthcare Life Sciences, Logan, UT, USA), and gentamicin (Sigma-Aldrich, St. Louis, MO, USA) at 37 °C in a humidified atmosphere with 5% CO2. K-562 and CT26 cells were grown at RPMI medium (Hyclone, GE Healthcare Life Sciences, Logan, UT, USA), with the same supplements and conditions.
(§3) To evaluate the in vitro toxicity of compounds synthesized, cells were seeded into 96-well plates at a density of 5 × 10^3 cells per well. On the next day, tested compounds were added to the wells at concentrations ranging from […], followed by incubation for 1 and 3 days. Cell proliferation was determined by adding 20 μL of MTS reagent (BioVision, Milpitas, CA, USA) stock solution per well. Each plate was incubated for 2 h at 37 °C in a humidified, 5% CO2 atmosphere. The plates were then read at 495 nm using plate spectrophotometer (Multiskan GO, Thermo Fisher Scientific, Waltham, MA, USA). All samples were measured in triplicates.

Assay [2] concerns human cervical carcinoma (HeLa) cell line. Description: MTS antiproliferative (cytotoxicity) assay, HeLa. Particulars: for SI (selectivity index), HeLa: Vero as reference cell line. Here is the method:
as §1, §2, §3

The subject of assay [3] is mouse colon carcinoma (CT26) cell line. Kind of assay: MTS antiproliferative (cytotoxicity) assay, CT26. The following applies: for SI (selectivity index), CT26: Vero as reference cell line. As to the method:
as §1, §2, §3

Assay [4] concerns African green monkey kidney epithelial (Vero) cell line. Description: MTS antiproliferative (cytotoxicity) assay, Vero (reference). As to the method: as §1, §2, §3
Assay [5] deals with human T lymphocyte (Jurkat) cell line. Kind of assay: MTS antiproliferative (cytotoxicity) assay, Jurkat. Particulars: for IC50: Homo sapiens, MTS. As to the method: (§4) The cytotoxicity of synthesized 3-azaspiro[bicyclo[3.1.0]hexane-2,5′-pyrimidines] 4 against human erythroleukemia (K562), cervical carcinoma (HeLa), and T lymphocyte (Jurkat), as well as mouse colon carcinoma (CT26) and African green monkey kidney epithelial (Vero) cell lines as reference, was evaluated in vitro by the standard MTS assay for 24 and 72 h. The results are presented in Figure 1, Figure 2, Figure 3, Figure 4 and Figure 5 (data on all, tested on K562, HeLa, and CT26 cell lines’ compounds, are given at SI, Figures S1–S3). […] Replacement of the phenyl group by either the carboxymethyl or N-isopropylcarbamoyl group has led to a significant decrease in the activity of spiro-fused cycloadducts comprising azabicyclo[3.1.0]hexane and alloxane moieties.
as §2, §3

In assay [6] the test system is K562, Jurkat, HeLa, CT26 and Vero cell lines. Kind of assay: MTS antiproliferative screening, all tested cell lines. The following applies: compared with phenyl substituted adducts. As to the method: as §4, with “moieties. […]” for “moieties.”
To evaluate the in vitro toxicity of compounds synthesized, cells were seeded into 96-well plates at a density of 5 × 10^3 cells per well. […] Cell proliferation was determined by adding 20 μL of MTS reagent (BioVision, Milpitas, CA, USA) stock solution per well. […] The plates were then read at 495 nm using plate spectrophotometer (Multiskan GO, Thermo Fisher Scientific, Waltham, MA, USA). All samples were measured in triplicates.

The mark [7] stands for this setting: Homo sapiens, K562, 24 h, read-out: IC50, K562, 24 h.
The mark [8] stands for this setting: Homo sapiens, K562, 72 h, read-out: IC50, K562, 72 h.
Where [9] appears, read: Homo sapiens, HeLa, 24 h, read-out: IC50, HeLa, 24 h.
Where [10] appears, read: Homo sapiens, HeLa, 72 h, read-out: IC50, HeLa, 72 h.
Where [11] appears, read: Mus musculus, CT26, 24 h, read-out: IC50, CT26, 24 h.
The mark [12] stands for this setting: Mus musculus, CT26, 72 h, read-out: IC50, CT26, 72 h.
Where [13] appears, read: Chlorocebus sabaeus, Vero, 24 h, read-out: IC50, Vero, 24 h.
The mark [14] stands for this setting: Chlorocebus sabaeus, Vero, 72 h, read-out: IC50, Vero, 72 h.

Like-named read-outs stand apart in the source and are kept apart here.

For `N.N.[Cl][Pt][Cl]` [Cisplatin, reference compound], in assay [1] (K562), the “SI (selectivity index), K562” value is 0.3. Besides, the IC50 in assay [1] (MTS, 24 h, read-out: IC50, K562, 24 h) came out at 46 ± 8 µM; in assay [1] (MTS, 72 h, read-out: IC50, K562, 72 h), 14 ± 2 µM; in assay [2] (MTS, 24 h, read-out: IC50, HeLa, 24 h) it was 16 ± 4 µM; in assay [2] (MTS, 72 h, read-out: IC50, HeLa, 72 h) it was 6 ± 1 µM; in assay [3] (MTS, 24 h, read-out: IC50, CT26, 24 h), 24 ± 4 µM; in assay [3] (MTS, 72 h, read-out: IC50, CT26, 72 h) it was 5 ± 1 µM. The IC50 in assay [4] (MTS, 24 h, read-out: IC50, Vero, 24 h) amounted to 14 ± 1 µM; in assay [4] (MTS, 72 h, read-out: IC50, Vero, 72 h), 4 ± 1 µM. Further, in assay [2] (HeLa), the “SI (selectivity index), HeLa” value is on record as 0.7. In assay [3] (CT26), the “SI (selectivity index), CT26” value is on record as 0.8.

On to `O=C1NC(=O)C2(NC[C@@]3(c4ccccc4)[C@H](c4ccccc4)[C@@]23c2ccccc2)C(=O)N1` [Compound 4a], for which the IC50 in assay [1] (setting [7]) is 47 ± 8 µM; in assay [1] (setting [8]), 14 ± 1 µM; in assay [2] (setting [9]), 125 ± 18 µM; in assay [2] (setting [10]), 70 ± 4 µM; in assay [3] (setting [11]), 64 ± 7 µM; in assay [3] (setting [12]) it was 50 ± 7 µM. In addition, the IC50 in assay [5] (24 h, read-out: IC50, Jurkat, 24 h) was determined as 24 ± 2 µM; in assay [5] (72 h, read-out: IC50, Jurkat, 72 h), 19 ± 5 µM; in assay [4] (setting [13]), 50 ± 14 µM; in assay [4] (setting [14]), 14 ± 2 µM. Moreover, the “SI (selectivity index), K562” value in assay [1] (K562) is 1.0. The “SI (selectivity index), HeLa” value in assay [2] (HeLa) is on record as 0.2. Further, the “SI (selectivity index), CT26” value in assay [3] (CT26) came to 0.3. In addition, the “SI (selectivity index), Jurkat” value in assay [5] (Vero as reference cell line) turned out to be 0.8. In assay [6], the “relative antiproliferative activity (structure-activity comparison)” value is recorded as “less active”.

In the case of `C[C@@H]1NC2(C(=O)NC(=O)NC2=O)[C@]2(c3ccccc3)[C@@H](c3ccccc3)[C@]12c1ccccc1` [Compound 4b], the IC50 is 25 ± 5 µM in assay [1] (setting [7]); 9 ± 2 µM in assay [1] (setting [8]); 34 ± 2 µM in assay [2] (setting [9]); 18 ± 2 µM in assay [2] (setting [10]); 30 ± 2 µM in assay [3] (setting [11]); 21 ± 2 µM in assay [3] (setting [12]). Besides, the results for the IC50 in assay [4] (setting [13]) and in assay [4] (setting [14]) were 55 ± 7 µM and 21 ± 2 µM, respectively. The “SI (selectivity index), K562” value in assay [1] (K562) was 2.4. The “SI (selectivity index), HeLa” value in assay [2] (HeLa) is listed as 1.2. Further, the “SI (selectivity index), CT26” value in assay [3] (CT26) was determined as 1.0.

In the case of `COc1cccc2c1C(=O)c1c(O)c3c(c(O)c1C2=O)C[C@@](O)(C(=O)CO)C[C@@H]3O[C@H]1C[C@H](N)[C@H](O)[C@H](C)O1` [Doxorubicin, reference compound], the IC50 in assay [1] (Homo sapiens, K562, MTS, 24 h, read-out: IC50, K562, 24 h) is 16 ± 3 µM; in assay [1] (Homo sapiens, K562, MTS, 72 h, read-out: IC50, K562, 72 h), 1.2 ± 0.3 µM; in assay [2] (Homo sapiens, HeLa, MTS, 24 h, read-out: IC50, HeLa, 24 h), 4 ± 1 µM; in assay [2] (Homo sapiens, HeLa, MTS, 72 h, read-out: IC50, HeLa, 72 h), 0.5 ± 0.1 µM; in assay [3] (Mus musculus, CT26, MTS, 24 h, read-out: IC50, CT26, 24 h) it was 19 ± 3 µM; in assay [3] (Mus musculus, CT26, MTS, 72 h, read-out: IC50, CT26, 72 h), 5.5 ± 0.3 µM. Also, the IC50 in assay [4] (Chlorocebus sabaeus, Vero, MTS, 24 h, read-out: IC50, Vero, 24 h) came out at 13 ± 2 µM; in assay [4] (Chlorocebus sabaeus, Vero, MTS, 72 h, read-out: IC50, Vero, 72 h), 2.4 ± 0.4 µM. The “SI (selectivity index), K562” value in assay [1] (K562) stood at 2.0. Besides, the “SI (selectivity index), HeLa” value in assay [2] (HeLa) is recorded as 4.8. In addition, the “SI (selectivity index), CT26” value in assay [3] (CT26) amounted to 0.5.
